In the NIST ThermoML archive (doi:10.1016/j.jct.2007.04.009):

Assay: cn = amount concentration of the nth substance listed, in mol/dm3
Settings: 101 kPa, Liquid; for speed of sound: Sing-around technique in a fixed-path interferometer; for mass density: Vibrating tube method

Cl [hydrogen chloride] + O
Settings | mass density, c1 = 0.001 [kg/m3] | mass density, c1 = 0.01 [kg/m3] | speed of sound, c1 = 0.001 [m/s] | speed of sound, c1 = 0.01 [m/s]
283.15 K | 999.726 | 999.891 | 1447.9 | 1448.2
293.15 K | 998.23 | 998.393 | 1482.6 | 1482.7
298.15 K | 997.067 | 997.231 | 1496.8 | 1496.9
303.15 K | 995.67 | 995.834 | 1509.3 | 1509.3
308.15 K | 994.057 | 994.318 | 1520 | 1520
313.15 K | 992.244 | 992.405 | 1529.1 | 1529.1
